# Measurements as given in patent US5434295A (priority 1994, dated 1995).
# Columns and labels:
# [1] = system: intraocular pressure (IOP); assay: Ocular hypotensive activity (intraocular pressure) in albino rabbits; format: in vivo, albino rabbit; details: for Max ΔIOP: ** drug vs. vehicle P < 0.01
# Experimental: Bicyclic compounds of the present invention were also tested for IOP lowering effects.
# Sci., 82, 1069-1079 (1993).
# The phospholipids and HU-259 were dissolved in the stabilized oily phase. The other excipients were dissolved in the aqueous phase. Both phases were heated separately to 70° C. and dispersed by a magnetic stirrer. Emulsification was completed using a "high speed mixer" for 5 min at 85° C. The resulting emulsion was cooled rapidly below 20° C. and homogenized using a two-stage homogenizing valve assembly (Gaulin Homogenizer, APV Gaulin, Hilversum, The Netherlands) for 5 min. All the manufacturing procedures were carried out under aseptic conditions and a nitrogen atmosphere. The pH was adjusted to 7.4 using a sodium hydroxide solution (10%). The final fine emulsion was filtered to achieve sterility and stored in ampoules. A typical formulation (%, w/w) consisted of the following: HU-259, 0.2%; oily phase, 20.0%; purified fractionated egg phospholipids, 1.2%; nonionic emulsifier, 2%; glycerin, 2.25%; α-tocopherol, 0.02%; methyl and butyl p-hydroxy- benzoic ester, 0.3 and 0.075%, respectively; and water for injection, to 100.0 g. The control emulsion vehicle was prepared using identical experimental conditions but without drug.
# IOP was measured by using a pneumatonometer (Digilab T30). Pressure readings were calibrated for verification every 6 h. One drop (50 μl) of local anesthetic (Benoxinate HCl, 0.4% Fischer [Isr] diluted 1:3 with sterile saline) was instilled into each eye prior to IOP measurements.
# [2] = system: AMPA/kainate receptors; assay: Effect on kainate responses in oocytes; format: biochemical, rat
compound,measurement,setting,value
"CCCCCCC(C)(C)c1cc(OC(C)=O)c([C@H]2C=C(C(=O)O)[C@H]3C[C@@H]2C3(C)C)c(OC(C)=O)c1 [(+)-4-[4-DMH-2,6 diacetoxyphenyl]-2-carboxy-6,6-dimethylbicyclo[3.1.1]hept-2-en]",AUC (from instillation of treatment until return to baseline IOP),[1]; contralateral eye,-7.8 ± 8.1 mmHg × hrs
same,contralateral eye pressure lowered by,"[1]; contralateral eye, single dose application",2.5±0.9 mmHg
same,Max ΔIOP,[1]; contralateral eye,-2.5 ± 0.9 mmHg
same,time of maximal ocular hypotensive effect,[1]; post-application,3 h
same,time at which pressure returned to baseline level,[1]; post-treatment,7 h
same,duration of statistically significant reduction in IOP compared to vehicle,[1]; single dose 30 microliter 0.2% emulsion,over five hours
same,AUC (from instillation of treatment until return to baseline IOP),[1]; treated eye,-10.9 ± 10.9 mmHg × hrs
same,Max ΔIOP,"[1]; treated eye, single dose 0.2% emulsion",-3.2 ± 0.7 mmHg
same,Pressure dropped by (maximal ocular hypotensive effect),"[1]; treated right eye, 3 h post-application, P<0.01",3.2±0.7 mmHg
same,effect on kainate responses,[2],no effect
